Measurements taken from PMC10208151 (mAbs, 2023).
pKd: −log10 of the molar value.

Molecular target: BMSmAb (Bristol Myers Squibb mAb, a type of IgG4)
Test: STD NMR titration
Assay type: binding

pKd: 1.17
SMILES: OC[C@H]1O[C@@](CO)(O[C@H]2O[C@H](CO)[C@@H](O)[C@H](O)[C@H]2O)[C@@H](O)[C@@H]1O [sucrose]
